Test [1] has as its target T1, Prostaglandin G/H synthase 1 (Bos taurus, UniProt O62664).
T1 sequence (O62664 whole entry): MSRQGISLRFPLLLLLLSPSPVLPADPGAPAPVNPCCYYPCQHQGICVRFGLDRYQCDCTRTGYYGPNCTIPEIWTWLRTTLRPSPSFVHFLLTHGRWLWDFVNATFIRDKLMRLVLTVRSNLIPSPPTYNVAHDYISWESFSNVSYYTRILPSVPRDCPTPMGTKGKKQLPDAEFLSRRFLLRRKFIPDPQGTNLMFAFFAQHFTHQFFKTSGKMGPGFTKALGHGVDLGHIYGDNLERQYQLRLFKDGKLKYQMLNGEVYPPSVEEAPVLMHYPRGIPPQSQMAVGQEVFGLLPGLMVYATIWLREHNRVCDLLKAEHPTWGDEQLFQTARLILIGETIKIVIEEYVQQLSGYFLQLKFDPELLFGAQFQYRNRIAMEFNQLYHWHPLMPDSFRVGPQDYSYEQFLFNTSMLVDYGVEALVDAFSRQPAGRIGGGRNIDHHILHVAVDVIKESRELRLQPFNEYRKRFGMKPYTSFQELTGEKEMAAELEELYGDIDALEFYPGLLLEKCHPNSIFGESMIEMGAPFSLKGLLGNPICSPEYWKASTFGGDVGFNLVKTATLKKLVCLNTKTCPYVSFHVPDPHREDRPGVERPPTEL
Description: Inhibition of bovine COX1 by enzyme immunoassay

A short description of test [2]: Inhibition of potato 5LOX by enzyme immunoassay. Further details: species or system Solanum tuberosum.
For test [3], the system named is Rattus norvegicus. Nature of the test: Antiinflammatory activity against carrageenan-induced foot paw edema in po dosed rat after 3 hrs. The format is functional.
Test [4] deals with Rattus norvegicus. Nature of the test: Antiinflammatory activity against carrageenan-induced foot paw edema in rat at 150 mg/kg, po after 3 hrs. The format is functional.
Test [5] has as its target T2, Prostaglandin G/H synthase 2 (Homo sapiens, UniProt P35354).
T2 sequence (P35354 whole entry): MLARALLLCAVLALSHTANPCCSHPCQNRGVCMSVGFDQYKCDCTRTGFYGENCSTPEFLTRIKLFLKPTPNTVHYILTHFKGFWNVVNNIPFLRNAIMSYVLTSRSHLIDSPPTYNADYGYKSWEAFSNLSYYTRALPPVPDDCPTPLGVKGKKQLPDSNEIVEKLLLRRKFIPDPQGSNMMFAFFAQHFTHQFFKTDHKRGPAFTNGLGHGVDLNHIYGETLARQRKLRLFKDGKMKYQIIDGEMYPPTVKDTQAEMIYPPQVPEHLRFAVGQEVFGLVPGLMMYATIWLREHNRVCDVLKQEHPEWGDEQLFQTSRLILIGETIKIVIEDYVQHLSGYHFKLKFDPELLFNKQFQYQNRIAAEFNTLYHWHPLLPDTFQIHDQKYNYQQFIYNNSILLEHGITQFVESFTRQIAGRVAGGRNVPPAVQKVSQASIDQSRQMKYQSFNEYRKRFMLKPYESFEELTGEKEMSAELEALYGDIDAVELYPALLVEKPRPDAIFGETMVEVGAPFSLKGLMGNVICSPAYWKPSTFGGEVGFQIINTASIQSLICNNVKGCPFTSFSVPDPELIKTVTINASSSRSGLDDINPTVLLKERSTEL
The experiment in a line: Inhibition of human recombinant COX2 by enzyme immunoassay.

This passage reports IC50, ED50 and Activity results from ChEMBL document CHEMBL1152816 (J Med Chem, 2009).

Molecules are shown by their SMILES.

In general, IC50 refers to the concentration that inhibits the measured activity by half. One may read the ED50 as the dose that gives a 50% effect, or the effect in half of the subjects. Read a high ED50 as a need for a large dose. On to `CS(=O)(=O)c1ccc(-n2nc(C(F)(F)F)cc2-c2ccnc(Cl)c2)cc1`, for which the results for the IC50 in test [1] and in test [2] were 258 µM and 0.47 µM, respectively. For the same molecule, the ED50 in the test on Rattus norvegicus [3] is greater than 150 mg/kg. For the same molecule, the Activity in the test on Rattus norvegicus [4] was 43.1%.

As to `CS(=O)(=O)c1ccc(-n2nc(C(F)(F)F)cc2-c2ccn(C(F)F)c(=O)c2)cc1`, the IC50 in test [1] amounted to 7.8 µM; in test [2] it was 4.4 µM; in test [5], 1.82 µM. In the test on Rattus norvegicus [3], this molecule yielded an ED50 of 42.9 mg/kg.

Consider `NS(=O)(=O)c1ccc(-n2nc(C(F)(F)F)cc2-c2ccnc(Cl)c2)cc1`, for which the IC50 in test [1] was 8.3 µM; in test [2], 0.39 µM; in test [5], 0.73 µM. For the same molecule, the ED50 with Rattus norvegicus [3] is greater than 150 mg/kg. Also, the Activity in the test with Rattus norvegicus [4] was determined as 33.3%.

As to `NS(=O)(=O)c1ccc(-n2nc(C(F)(F)F)cc2-c2ccn(C(F)F)c(=O)c2)cc1`, the IC50 stood at 13.1 µM in test [1], 5 µM in test [2] and 0.69 µM in test [5]. Besides, the ED50 in the test on Rattus norvegicus [3] was determined as 27.7 mg/kg.

Regarding `O=C(O)/C=C/c1ccc(O)c(O)c1` [CAFFEIC ACID], in test [2], it took 4 µM to reach half-maximal inhibition (IC50).

Take `CC(C)Cc1ccc(C(C)C(=O)O)cc1` (centres undefined) [IBUPROFEN]: in the test with Rattus norvegicus [3], the ED50 was 67.4 mg/kg.
